Laboratory results taken from US12441762B2, “Hepatitis c virus NS3/4A protease inhibitors” (priority 2019, dated 2025).
Read-outs that look alike come from different tables or passages of the source.

Columns and labels:
[1] = target: T1, HCV NS3/4A protease D168A variant (Hepatitis C virus genotype 1a, UniProt P27958, C1185S/D1194A); assay: biochemical; assay type: biochemical
T1 construct: His-tag (cleaved yes); made in house; host or cells: Escherichia coli BL21(DE3), PET28a vector
Summary of the method: (§1)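 Inhibitors pre-incubated 1 h at room temperature with 2 nM NS3/4A protease (GT1a C159S or D168A) in 50 mM Tris, 5% glycerol, 10 mM DTT, 0.6 mM LDAO, 4% DMSO, pH 7.5. Km from global Michaelis-Menten fit of inner-filter-corrected initial velocities; three independent data sets per inhibitor and construct.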

[2] = tested on: HCV NS3/4A protease D168A variant; assay: biochemical; assay type: biochemical, Hepatitis C virus; details: Table S1, value in parentheses
Summary of the method: as §1

[3] = target: T2, wild-type HCV NS3/4A protease (GT1a) (Hepatitis C virus genotype 1a, UniProt P27958, C1185S); assay: biochemical; assay type: biochemical
T2 construct: His-tag (cleaved yes); made in house; host or cells: Escherichia coli BL21(DE3), PET28a vector
Summary of the method: as §1

HCV NS3/4A protease GT3 = HCV NS3/4A protease GT3 (Hepatitis C virus genotype 3a, UniProt Q81495); assay: biochemical
[4] = rcm bond, 70.0 °C, 6.0 h
[5] = rcm bond, 15-membered ring, Zhan 1B, 1,2-DCE, 70.0 °C

T1 sequence (P27958 1027-1208 C1185S/D1194A): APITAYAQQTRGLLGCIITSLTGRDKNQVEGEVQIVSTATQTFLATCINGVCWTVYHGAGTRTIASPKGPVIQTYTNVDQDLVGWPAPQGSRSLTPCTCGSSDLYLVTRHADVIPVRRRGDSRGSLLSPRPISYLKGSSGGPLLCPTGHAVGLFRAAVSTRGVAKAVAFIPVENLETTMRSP
T2 sequence (P27958 1027-1208 C1185S): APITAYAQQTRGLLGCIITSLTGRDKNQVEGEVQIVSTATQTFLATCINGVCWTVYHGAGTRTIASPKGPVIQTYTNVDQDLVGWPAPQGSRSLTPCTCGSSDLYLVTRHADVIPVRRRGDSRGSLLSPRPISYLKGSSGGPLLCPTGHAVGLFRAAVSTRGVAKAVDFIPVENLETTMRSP
Sequence of HCV NS3/4A protease GT3 (Q81495 1033-1214): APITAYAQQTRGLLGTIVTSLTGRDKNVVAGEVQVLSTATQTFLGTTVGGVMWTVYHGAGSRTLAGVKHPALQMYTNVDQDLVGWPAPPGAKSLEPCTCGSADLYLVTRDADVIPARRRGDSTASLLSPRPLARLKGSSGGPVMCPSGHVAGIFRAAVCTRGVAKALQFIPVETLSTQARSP
Sequence of HCV NS3/4A protease GT3 (Q81495 1664-1717): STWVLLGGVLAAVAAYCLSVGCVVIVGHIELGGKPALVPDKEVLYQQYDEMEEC

Row | Molecule | Ki [1] [nM] | Fold Change of D168A Ki with respect to GT1a wild-type [2] | Ki [3] [nM] | Ki (HCV NS3/4A protease GT3) [nM] | further results
1 | COc1ccc2nc(C)c(O[C@@H]3C[C@H]4C(=O)N[C@]5(C(=O)NS(=O)(=O)C6(C)CC6)C[C@H]5/C=C\CCCCC[C@H](NC(=O)OC5(C)CCCC5)C(=O)N4C3)nc2c1 [AJ-74, 1-Methylcyclopentyl ((2R,6S,13aS,14aR,16aS, Z)-2-((7-methoxy-3-methylquinoxalin-2-yl)oxy)-14a-(((1-methylcyclopropyl)sulfonyl)carbamoyl)-5,16-dioxo-1,2,3,5,6,7,8,9,10,11,13a,14,14a,15,16,16a-hexadecahydrocyclopropa[e]pyrrolo[1,2-a][1,4]diazacyclopentadecin-6-yl) carbamate] | 16 ± 1.2 | (9) fold | 1.78 ± 0.3 | 151 ± 11 | –
2 | COc1ccc2nc(C(F)(F)F)c(O[C@@H]3C[C@H]4C(=O)N[C@]5(C(=O)NS(=O)(=O)C6(C)CC6)C[C@H]5/C=C\CCCCC[C@H](NC(=O)OC(C)(C)C)C(=O)N4C3)nc2c1 [CH-24, tert-Butyl ((2R,6S,13aS,14aR,16aS, Z)-2-((7-methoxy-3-(trifluoromethyl)quinoxalin-2-yl)oxy)-14a-(((1-methylcyclopropyl)sulfonyl)carbamoyl)-5,16-dioxo-1,2,3,5,6,7,8,9,10,11,13a,14,14a,15,16,16a-hexadecahydrocyclopropa[e]pyrrolo[1,2-a] [1,4]diazacyclopentadecin-6-yl) carbamate] | 118 ± 13 | – | 5.77 ± 1.78 | – | ring closure, yield of all isomers ([4]; from C=CCCCCC[C@H](NC(=O)OC(C)(C)C)C(=O)N1C[C@H](Oc2nc3cc(OC)ccc3nc2C(F)(F)F)C[C@H]1C(=O)N[C@]1(C(=O)NS(=O)(=O)C2(C)CC2)C[C@H]1C=C, Zhan 1B, 1,2-dichloroethane, 5.73 mM): 73%
3 | COc1ccc2nc(C)c(O[C@@H]3C[C@H]4C(=O)N[C@]5(C(=O)NS(=O)(=O)C6(C)CC6)C[C@H]5/C=C\CCCCC[C@H](NC(=O)O[C@@H]5C[C@@H]6C[C@@H]6C5)C(=O)N4C3)nc2c1 [NR03-77, (1R,3R,5S)-Bicyclo[3.1.0]hexan-3-yl ((2R,6S,13aS,14aR,16aS,Z)-2-((7-methoxy-3-methylquinoxalin-2-yl)oxy)-14a-(((1-methylcyclopropyl)sulfonyl)carbamoyl)-5,16-dioxo-1,2,3,5,6,7,8,9,10,11,13a,14,14a,15,16,16a-hexadecahydrocyclopropa[e]pyrrolo[1,2-a][1,4]diazacyclopentadecin-6-yl)carbamate] | 2.3 ± 0.7 | (4) fold | 0.54 ± 0.2 | 38.6 ± 1.5 | fold more potent than grazoprevir towards D168A ([1]; compared to grazoprevir): 20 fold; fold increase in potency against D168A compared to the parent compound [1]: 26 fold; fold improvement in potency against WT compared to P4-2 ([3]; compared to P4-2): ~3 fold
4 | COc1ccc2nc(C)c(O[C@@H]3C[C@H]4C(=O)N[C@]5(C(=O)NS(=O)(=O)C6(C)CC6)C[C@H]5/C=C\CCCCC[C@H](NC(=O)OC(C)(C)C)C(=O)N4C3)nc2c1 [JZ01-15, tert-Butyl ((2R,6S,13aS,14aR,16aS, Z)-2-((7-methoxy-3-methylquinoxalin-2-yl)oxy)-14a-(((1-methylcyclopropyl)sulfonyl)carbamoyl)-5,16-dioxo-1,2,3,5,6,7,8,9,10,11,13a,14,14a,15,16,16a-hexadecahydrocyclopropa[e]pyrrolo[1,2-a] [1,4]diazacyclopentadecin-6-yl) carbamate] | 52 ± 2.4 | (14) fold | 3.6 ± 0.44 | – | ring closure, yield of all isomers ([4]; from C=CCCCCC[C@H](NC(=O)OC(C)(C)C)C(=O)N1C[C@H](Oc2nc3cc(OC)ccc3nc2C)C[C@H]1C(=O)N[C@]1(C(=O)NS(=O)(=O)C2(C)CC2)C[C@H]1C=C, Zhan 1B, 1,2-dichloroethane, 4.95 mM): 70%; ring closure, yield of all isomers ([4]; from C=CCCCCC[C@H](NC(=O)OC(C)(C)C)C(=O)N1C[C@H](Oc2nc3cc(OC)ccc3nc2C)C[C@H]1C(=O)N[C@]1(C(=O)NS(=O)(=O)C2(C)CC2)C[C@H]1C=C, Zhan 1b catalyst, 1,2-DCE, 4.95 mM): 70%
5 | COc1ccc2nc(C)c(O[C@@H]3C[C@H]4C(=O)N[C@]5(C(=O)NS(=O)(=O)C6(C)CC6)C[C@H]5/C=C\CCCCC[C@H](NC(=O)OC5(C)CCCC5)C(=O)N4C3)nc2c1 [JZ01-19] | – | – | – | – | Ki ([1]; Table 2, read-out: Ki D168A): 36 ± 1.8 nM; Ki ([1]; Table S1, Morrison equation fit, read-out: Ki D168A): 36 ± 1.8 nM; fold increase in potency against D168A compared to the parent compound [1]: ~3 fold; Fold Change of D168A Ki with respect to GT1a wild-type ([2]; listed as P4-3): (32) fold; Ki ([3]; Table 2, read-out: Ki WT (GT1a)): 1.13 ± 0.22 nM; Ki ([3]; Table S1, Morrison equation fit, read-out: Ki GT1a WT): 1.13 ± 0.22 nM; Ki (HCV NS3/4A protease GT3; Table 2, read-out: Ki GT3): 121 ± 16 nM
6 | tert-Butyl ((2R,6S,13aS,14aR,16aS, Z)-2-((7-methoxy-3-(trifluoromethyl) quinoxalin-2-yl) oxy)-14a-(((1-methylcyclopropyl) sulfonyl) carbamoyl)-5,16-dioxo-1,2,3,5,6,7,8,9,10,11,13a,14,14a,15,16,16a-hexadecahydrocyclopropa[e]pyrrolo[1,2-a] [1,4] diazacyclopentadecin-6-yl) carbamate | – | – | – | – | ring closure, isolated yield ([5]; 5.73 mM): 73%
7 | COc1ccc2nc(C)c(O[C@@H]3C[C@H]4C(=O)N[C@]5(C(=O)NS(=O)(=O)C6(C)CC6)C[C@H]5/C=C\CCCCC[C@H](NC(=O)OC5(C(F)(F)F)CCC5)C(=O)N4C3)nc2c1 [NR02-58, 1-(Trifluoromethyl)cyclobutyl ((2R,6S,13aS,14aR,16aS,Z)-2-((7-methoxy-3-methylquinoxalin-2-yl)oxy)-14a-(((1-methylcyclopropyl)sulfonyl)carbamoyl)-5,16-dioxo-1,2,3,5,6,7,8,9,10,11,13a,14,14a,15,16,16a-hexadecahydrocyclopropa[e]pyrrolo[1,2-a][1,4]diazacyclopentadecin-6-yl)carbamate] | 11.3 ± 2 | – | 1.5 ± 0.2 | 96 ± 17 | –
8 | COc1ccc2nc(C)c(O[C@@H]3C[C@H]4C(=O)N[C@]5(C(=O)NS(=O)(=O)C6(C)CC6)C[C@H]5/C=C\CCCCC[C@H](NC(=O)OC5CCCCC5)C(=O)N4C3)nc2c1 [NR03-67, Cyclohexyl ((2R,6S,13aS,14aR,16aS,Z)-2-((7-methoxy-3-methylquinoxalin-2-yl)oxy)-14a-(((1-methylcyclopropyl)sulfonyl)carbamoyl)-5,16-dioxo-1,2,3,5,6,7,8,9,10,11,13a,14,14a,15,16,16a-hexadecahydrocyclopropa[e]pyrrolo[1,2-a][1,4]diazacyclopentadecin-6-yl)carbamate] | 12.7 ± 1.2 | (14) fold | 0.94 ± 0.25 | 145 ± 7 | fold increase in potency against D168A compared to the parent compound [1]: ~3 fold
9 | COc1ccc2nc(C)c(O[C@@H]3C[C@H]4C(=O)N[C@]5(C(=O)NS(=O)(=O)C6(C)CC6)C[C@H]5/C=C\CCCCC[C@H](NC(=O)O[C@H](C)C(F)(F)F)C(=O)N4C3)nc2c1 [NR01-145, (R)-1,1,1-Trifluoropropan-2-yl ((2R,6S,13aS,14aR,16aS,Z)-2-((7-methoxy-3-methylquinoxalin-2-yl)oxy)-14a-(((1-methylcyclopropyl)sulfonyl)carbamoyl)-5,16-dioxo-1,2,3,5,6,7,8,9,10,11,13a,14,14a,15,16,16a-hexadecahydrocyclopropa[e]pyrrolo[1,2-a][1,4]diazacyclopentadecin-6-yl)carbamate] | 8 ± 1 | – | 1.1 ± 0.1 | 122 ± 11 | –
10 | COc1ccc2nc(C)c(O[C@@H]3C[C@H]4C(=O)N[C@]5(C(=O)NS(=O)(=O)C6(C)CC6)C[C@H]5/C=C\CCCCC[C@H](NC(=O)O[C@@H]5CCC[C@H]5F)C(=O)N4C3)nc2c1 [NR02-08, (1R,2R)-2-Fluorocyclopentyl ((2R,6S,13aS,14aR,16aS,Z)-2-((7-methoxy-3-methylquinoxalin-2-yl)oxy)-14a-(((1-methylcyclopropyl)sulfonyl)carbamoyl)-5,16-dioxo-1,2,3,5,6,7,8,9,10,11,13a,14,14a,15,16,16a-hexadecahydrocyclopropa[e]pyrrolo [1,2-a][1,4]diazacyclopentadecin-6-yl)carbamate] | 16 ± 1 | – | 2.3 ± 0.2 | 216 ± 32 | –
11 | tert-Butyl ((2R,6S,13aS,14aR,16aS, Z)-2-((7-methoxy-3-methylquinoxalin-2-yl) oxy)-14a-(((1-methylcyclopropyl) sulfonyl) carbamoyl)-5,16-dioxo-1,2,3,5,6,7,8,9,10,11,13a,14,14a,15,16,16a-hexadecahydrocyclopropa[e]pyrrolo[1,2-a] [1,4] diazacyclopentadecin-6-yl) carbamate | – | – | – | – | ring closure, isolated yield ([5]; 4.95 mM): 70%
12 | COc1ccc2nc(C(F)(F)F)c(O[C@@H]3C[C@H]4C(=O)N[C@]5(C(=O)NS(=O)(=O)C6(C)CC6)C[C@H]5/C=C\CCCCC[C@H](NC(=O)OC5CC5)C(=O)N4C3)nc2c1 [NR02-46, Cyclopropyl ((2R,6S,13aS,14aR,16aS,Z)-2-((7-methoxy-3-(trifluoromethyl)quinoxalin-2-yl)oxy)-14a-(((1-methylcyclopropyl)sulfonyl)carbamoyl)-5,16-dioxo-1,2,3,5,6,7,8,9,10,11,13a,14,14a,15,16,16a-hexadecahydrocyclopropa[e]pyrrolo[1,2-a][1,4]diazacyclopentadecin-6-yl)carbamate] | 67.5 ± 3.9 | – | 13.6 ± 0.9 | 522 ± 25 | –
